According to patent publication US9238631B2, “Radiolabeled amino acids for diagnostic imaging” (PIRAMAL IMAGING SA, priority 2011, dated 2016):

Tested on: NCI-H460 tumor
Experiment: In vivo biodistribution in NCI-H460 tumor bearing mice
Design: Summary: organs / Summary: Carcass / Summary: faeces: unit not given here
Conditions: for Summary: urine: in %; for Summary: Recovery: in % (unit assumed)
Outline: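 Biodistribution of 18F-labeled compounds was assessed in female NMRI (nu/nu) mice bearing NCI-H460 tumors, established by inoculating 5×10^6 cells 8 to 10 days beforehand. Each mouse received 185 kBq of the fluorinated tracer; at least n=3 animals per time point were sacrificed, organs excised, and radioactivity quantified with a γ-counter.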

Compound: N[C@@H](CCC(Cc1ccc(OCC[18F])cc1)C(=O)O)C(=O)O (stereo partly drawn) [[^18F]-12] [(2S)-2-Amino-5-[4-(2-[^18F]fluoroethoxy)benzyl]hexanedioic acid]
- Pancreas uptake (% ID/g) (0.25 h p.i.): 11.45 % ID/g
- Pancreas (% ID/g at 1 h p.i.) (1 h p.i.): 3.62 % ID/g
- Tumor (% ID/g at 1 h p.i.) (1 h p.i.): 6.47 % ID/g
- Urine (% ID at 1 h p.i.) (1 h p.i.): 82.1 ± 7.3 % ID
- activity excreted (kidneys/urine) (1 h p.i.): 82.1%
- tumor-to-pancreas ratio (1 h p.i.): 1.8
- T/Blood (1 h post injection): 33.9
- T/Muscle (1 h post injection): 103.4
- Tumor uptake (% ID/g) (2 h p.i.): 7.21 % ID/g
- Tumor uptake (% ID/g) (4 h p.i.): 5.17 % ID/g
- tumor uptake and retention (summary statement) (mouse, in vivo): high tumor uptake and retention
- Adrenals (% Dosis/g) (timepoint 0.25 h): 0.69 % Dosis/g
- Blood (% Dosis/g) (timepoint 0.25 h): 1.28 % Dosis/g
- Bone (% Dosis/g) (timepoint 0.25 h): 0.39 % Dosis/g
- Brain (% Dosis/g) (timepoint 0.25 h): 0.09 % Dosis/g
- Fat (% Dosis/g) (timepoint 0.25 h): 0.16 % Dosis/g
- Gallbladder (% Dosis/g) (timepoint 0.25 h): 2.53 % Dosis/g
- Heart (% Dosis/g) (timepoint 0.25 h): 0.58 % Dosis/g
- Intestine (% Dosis/g) (timepoint 0.25 h): 1.10 % Dosis/g
- Liver (% Dosis/g) (timepoint 0.25 h): 9.02 % Dosis/g
- Muscle (% Dosis/g) (timepoint 0.25 h): 0.26 % Dosis/g
- Ovaries (% Dosis/g) (timepoint 0.25 h): 1.25 % Dosis/g
- Pancreas (% Dosis/g) (timepoint 0.25 h): 11.45 % Dosis/g
- Skin (% Dosis/g) (timepoint 0.25 h): 1.58 % Dosis/g
- Spleen (% Dosis/g) (timepoint 0.25 h): 2.49 % Dosis/g
- Stomach (% Dosis/g) (timepoint 0.25 h): 3.08 % Dosis/g
- Summary: Carcass (timepoint 0.25 h): 9.55
- Summary: organs (timepoint 0.25 h): 36.92
- Tail (% Dosis/g) (timepoint 0.25 h): 3.02 % Dosis/g
- Thyroid (% Dosis/g) (timepoint 0.25 h): 0.78 % Dosis/g
- Tumor (% Dosis/g) (timepoint 0.25 h): 5.55 % Dosis/g
- Tumor/Tissue: Adrenals (timepoint 0.25 h): 8.53
- Tumor/Tissue: Blood (timepoint 0.25 h): 4.49
- Tumor/Tissue: Bone (timepoint 0.25 h): 14.61
- Tumor/Tissue: Brain (timepoint 0.25 h): 62.27
- Tumor/Tissue: Fat (timepoint 0.25 h): 37.81
- Tumor/Tissue: Gallbladder (timepoint 0.25 h): 2.19
- Tumor/Tissue: Heart (timepoint 0.25 h): 9.67
- Tumor/Tissue: Intestine (timepoint 0.25 h): 4.93
- Tumor/Tissue: Kidney (timepoint 0.25 h): 0.36
- Tumor/Tissue: Liver (timepoint 0.25 h): 0.62
- Tumor/Tissue: Lung (timepoint 0.25 h): 3.79
- Tumor/Tissue: Muscle (timepoint 0.25 h): 20.90
- Tumor/Tissue: Ovaries (timepoint 0.25 h): 4.55
- Tumor/Tissue: Pancreas (timepoint 0.25 h): 0.49
- Tumor/Tissue: Skin (timepoint 0.25 h): 3.71
- Tumor/Tissue: Spleen (timepoint 0.25 h): 2.27
- Tumor/Tissue: Stomach (timepoint 0.25 h): 1.75
- Tumor/Tissue: Thyroid (timepoint 0.25 h): 7.48
- Tumor/Tissue: Uterus (timepoint 0.25 h): 2.31
- Uterus (% Dosis/g) (timepoint 0.25 h): 2.54 % Dosis/g
- Summary: urine (timepoint 0.25 h): 50.49
- Summary: Recovery (timepoint 0.25 h): 96.96
- Adrenals (% Dosis/g) (timepoint 0.5 h): 0.57 % Dosis/g
- Blood (% Dosis/g) (timepoint 0.5 h): 0.74 % Dosis/g
- Bone (% Dosis/g) (timepoint 0.5 h): 0.30 % Dosis/g
- Brain (% Dosis/g) (timepoint 0.5 h): 0.07 % Dosis/g
- Fat (% Dosis/g) (timepoint 0.5 h): 0.12 % Dosis/g
- Gallbladder (% Dosis/g) (timepoint 0.5 h): 5.25 % Dosis/g
- Heart (% Dosis/g) (timepoint 0.5 h): 0.38 % Dosis/g
- Intestine (% Dosis/g) (timepoint 0.5 h): 4.00 % Dosis/g
- Liver (% Dosis/g) (timepoint 0.5 h): 5.93 % Dosis/g
- Muscle (% Dosis/g) (timepoint 0.5 h): 0.15 % Dosis/g
- Ovaries (% Dosis/g) (timepoint 0.5 h): 1.06 % Dosis/g
- Pancreas (% Dosis/g) (timepoint 0.5 h): 9.94 % Dosis/g
- Skin (% Dosis/g) (timepoint 0.5 h): 1.08 % Dosis/g
- Spleen (% Dosis/g) (timepoint 0.5 h): 1.94 % Dosis/g
- Stomach (% Dosis/g) (timepoint 0.5 h): 4.18 % Dosis/g
- Summary: Carcass (timepoint 0.5 h): 7.31
- Summary: faeces (timepoint 0.5 h): 0.10
- Summary: organs (timepoint 0.5 h): 33.35
- Tail (% Dosis/g) (timepoint 0.5 h): 1.81 % Dosis/g
- Thyroid (% Dosis/g) (timepoint 0.5 h): 0.65 % Dosis/g
- Tumor (% Dosis/g) (timepoint 0.5 h): 6.91 % Dosis/g
- Tumor/Tissue: Adrenals (timepoint 0.5 h): 13.61
- Tumor/Tissue: Blood (timepoint 0.5 h): 9.81
- Tumor/Tissue: Bone (timepoint 0.5 h): 22.54
- Tumor/Tissue: Brain (timepoint 0.5 h): 92.44
- Tumor/Tissue: Fat (timepoint 0.5 h): 64.26
- Tumor/Tissue: Gallbladder (timepoint 0.5 h): 1.36
- Tumor/Tissue: Heart (timepoint 0.5 h): 20.04
- Tumor/Tissue: Intestine (timepoint 0.5 h): 4.66
- Tumor/Tissue: Kidney (timepoint 0.5 h): 0.79
- Tumor/Tissue: Liver (timepoint 0.5 h): 1.27
- Tumor/Tissue: Lung (timepoint 0.5 h): 7.67
- Tumor/Tissue: Muscle (timepoint 0.5 h): 45.35
- Tumor/Tissue: Ovaries (timepoint 0.5 h): 6.59
- Tumor/Tissue: Pancreas (timepoint 0.5 h): 0.68
- Tumor/Tissue: Skin (timepoint 0.5 h): 6.42
- Tumor/Tissue: Spleen (timepoint 0.5 h): 3.60
- Tumor/Tissue: Stomach (timepoint 0.5 h): 2.18
- Tumor/Tissue: Thyroid (timepoint 0.5 h): 10.73
- Tumor/Tissue: Uterus (timepoint 0.5 h): 5.85
- Uterus (% Dosis/g) (timepoint 0.5 h): 1.38 % Dosis/g
- Summary: urine (timepoint 0.5 h): 57.06
- Summary: Recovery (timepoint 0.5 h): 97.82
- Adrenals (% Dosis/g) (timepoint 1.0 h): 0.27 % Dosis/g
- Blood (% Dosis/g) (timepoint 1.0 h): 0.19 % Dosis/g
- Bone (% Dosis/g) (timepoint 1.0 h): 0.16 % Dosis/g
- Brain (% Dosis/g) (timepoint 1.0 h): 0.05 % Dosis/g
- Fat (% Dosis/g) (timepoint 1.0 h): 0.03 % Dosis/g
- Gallbladder (% Dosis/g) (timepoint 1.0 h): 8.20 % Dosis/g
- Heart (% Dosis/g) (timepoint 1.0 h): 0.11 % Dosis/g
- Intestine (% Dosis/g) (timepoint 1.0 h): 0.91 % Dosis/g
- Liver (% Dosis/g) (timepoint 1.0 h): 2.17 % Dosis/g
- Muscle (% Dosis/g) (timepoint 1.0 h): 0.07 % Dosis/g
- Ovaries (% Dosis/g) (timepoint 1.0 h): 0.79 % Dosis/g
- Pancreas (% Dosis/g) (timepoint 1.0 h): 3.62 % Dosis/g
- Skin (% Dosis/g) (timepoint 1.0 h): 0.61 % Dosis/g
- Spleen (% Dosis/g) (timepoint 1.0 h): 1.54 % Dosis/g
- Stomach (% Dosis/g) (timepoint 1.0 h): 0.94 % Dosis/g
- Summary: Carcass (timepoint 1.0 h): 3.58
